PMC5556019, “Targeting Apolipoprotein E/Amyloid β Binding by Peptoid CPO_Aβ17-21 P Ameliorates Alzheimer’s Disease Related Pathology and Cognitive Decline” (Scientific Reports, 2017)
Numbered stars: 1 amine (or outer) side, 2 acyl side, 3 side chain; on linkers, the order of the positions; unused ones are H or OH. Bridge positions count the residues as written; N and C are the ends. Square brackets hold non-standard residues; d marks the D form. Peptide text beside a SMILES is read from it. ξ: configuration not given here. N(CH2CH2CO)Gly = O=C(CN(CCC(=O)[*:3])[*:1])[*:2]; Nphe = O=C(O)CNCc1ccccc1; Nleu = CC(C)CNCC(=O)O; ξP = O=C(O)C1CCCN1; Sar = CNCC(=O)O

How the values were obtained:
[1] = Thioflavin T aggregation assay, peptoid incubated alone; format: physicochemical; conditions: up to 100 µM, 37 °C, 10 days, 100 mM Tris buffer pH 7.4
Experimental: (§1) Peptide Aβ42 or peptoid CPO_Aβ17-21 P were incubated alone at a concentration of 100 µM over a period of 7–10 days at 37 °C in 100 mM Tris buffer (pH 7.4). […] In aggregation inhibition experiments, apoE4 was pre-incubated with CPO_Aβ17-21 P in a molar ratio of 1:2 for 6 hrs at 37 °C followed by addition to freshly reconstituted Aβ42 on ice (molar ratio 100:1:2, Aβ42:apoE4:peptoid). As a control, Aβ42 was also incubated with CPO_Aβ17-21 P at a molar ratio of 100:2. For peptide Aβ40 all the experiments were conducted under the same conditions as Aβ42 except the peptide concentration was 400 µM. The molar ratio of Aβ40:apoE4:CPO_Aβ17-21 P was 100:1:2. (400 µM Aβ40:4 µM apoE4:8 µM CPO_Aβ17-21 P). Fibril formation by the different peptides at various time points was evaluated by a standard Thioflavin-T assay according to previously published protocols, [33].The samples were diluted in buffer containing 50 mM glycine, 2 µM Thioflavin T pH 9.2, and read on a Molecular Devices SpectraMax M2 spectrophotometer (Sunnyvale, CA) at excitation and emission wavelengths 440 and 482 nm.

APP/PS1 Tg mice = assay: Astrocytosis and microgliosis by GFAP, CD11b and Iba1 immunoreactivity; format: in vivo, mouse; conditions: semi-quantitative rating 0-4, versus vehicle
Experimental: The effect of CPO_Aβ17-21 P on Aβ deposition was tested in APP/PS1 Tg mice with plaque pathology. This AD mouse model develops plaque pathology from the age of 3 months. Animals were divided into two groups and received intraperitoneally (i.p.) injections of 0.2 mg of CPO_ Aβ17–21 P per mouse in sterile saline (n = 11, 5 male, 6 female) or saline alone (n = 10, 5 male, 5 female) as a control twice weekly for 4 months, beginning at age 3 months. During the treatment, veterinary staff monitored animals for any signs of toxicity, such as changes in body weight, physical appearance, and altered behavior. Animals were sacrificed a week after administration of the last treatment dose and behavioral testing. All mouse care and experimental procedures were compliant with guidelines of animal experimentation and were approved by the Institutional Animal Care and Use Committee at the New York University School of Medicine.
Mice were anesthetized with sodium pentobarbital (150 mg/kg, i.p.) and blood was collected via cardiac puncture and plasma was separated by centrifugation. Animals were perfused transaortically. The brains and internal organs were collected and cut into halves, one half immersion-fixed in periodate-lysine paraformaldehyde (PLP) for histopathological analysis, and another half snap-frozen for biochemical studies as previously described. Serial coronal brain sections (40 μm) were cut evenly spaced every 400 μm μm along the entire rostro-caudal brain axis and stained for immunohistochemical analysis with: (1) a mixture of anti-Aβ monoclonal antibodies 6E10/4G8 (1 :2000) (Covance, Princeton, NJ), (2) polyclonal anti-glial fibrillary acidic protein (GFAP) antibody (1:1000) (Dako, Carpinteria, CA), (3) polyclonal anti-Iba1 antibody (1:1000) (Wako Chemicals, Richmond, VA) and (4) monoclonal anti-CD11b (1: 500) (Serotec, Raleigh, NC). To measure treated mice brain total amyloid burden change, two different anti-Aβ monoclonal antibodies with distinct epitopes 6E10 (epitope Aβ1–16) and 4G8 (epitope Aβ17–24) were used[38]. To examine brain inflammation levels associated with treatment, we assessed the degree of astrocytosis with GFAP immunoreactivity and the degree of microgliosis with Iba1 and CD11b immunoreactivity as previously published, [37], [39], [40]. GFAP is a component of the glial intermediate filaments that form part of the cytoskeleton and is found predominantly in astrocytes. CD11b is a protein subunit that forms integrin alpha-M beta-2 (αMβ2) molecule, also known as MAC-1 or complement receptor 3 (CR3). CD11b monoclonal antibodies are commonly used for detection of microglial activation at the earliest stages of plaque development. In addition, Iba1 (ionized calcium binding adaptor molecule) antibody was used to label the entire microglia population including activated and resting microglia, a marker for detecting generic microglia, [43]. Immunohistochemistry was performed on free floating coronal brain sections. Details of the procedure and techniques were described previously, [37], [39], [40]. […] Human Alzheimer disease patients brain sections were used for positive control immunostaining, sequential mouse brain sections with omission of the primary antibody were used for negative immunostaining controls.
The assessment of astrocytosis and microgliosis were based on a semi-quantitative analysis, using methods we have previously published by a rater blinded to the treatment status of the mice[19], [37], [39], [40]. Prior to analysis, brains were microscopically examined and rated on a scale from 0–4, in increments of 0.5, depending on the degree of pathology and/or the activation stage of the glial cells. All stained cortical and hippocampal sections were analyzed at 10x magnification. Approximately 8 cortical sections and 6 hippocampal sections were analyzed per animal. […]

[2] = test system: apoE4 mediated Aβ42 aggregation; assay: Thioflavin T assay of apoE4 mediated Aβ42 aggregation; format: biochemical, human
Experimental: as §1

apoE4/Aβ42 binding = biological target: T1, apoE4/Aβ42 binding (Homo sapiens, UniProt P02649, C130R); assay: Surface plasmon resonance assay of apoE4/Aβ42 binding inhibition
T1 construct: purchased BioVision (Milpitas, CA)
Experimental: Experiments were performed using a Reichert SR7000DC refractometer system (Reichert, New York) equipped with a CM5 sensor chip. Acetate buffer was used for immobilization of the peptide Aβ42 (ligand). […] Importantly, Aβ42 species are considered critical for seeding of amyloid deposits, [32]. CM-dextran on a CM5 gold sensor chip was activated by injecting a solution of 10 mg/mL N-Hydroxysuccinimide (NHS) and 40 mg/mL 1-Ethyl-3-(3-dimethylaminopropyl) carbodiimide (EDC) over the sensor chip surface for 7 min at a flow rate of 20 µL/min. Then the ligand, 50 µg/mL HFIP treated synthetic peptide Aβ42 in 10 mM sodium acetate, pH 4.5, was immobilized by injection over the surface for 20 min. The unreacted sites on the sensor chip surface were blocked by injection of 1 M ethanolamine, pH 8.5 for 10 min. […] After each binding cycle the surface was regenerated by a short, fast injection of 10 mM hydrochloric acid. To verify results analytes containing lipidated human apoE4 molecules or lipidated human apoE3 molecules incubated with peptoid inhibitors in phosphate buffered saline with 0.05% TWEEN 20, pH 7.4 (PBST) were tested and the association and dissociation reactions were monitored.

T1 sequence (P02649 19-317 C130R): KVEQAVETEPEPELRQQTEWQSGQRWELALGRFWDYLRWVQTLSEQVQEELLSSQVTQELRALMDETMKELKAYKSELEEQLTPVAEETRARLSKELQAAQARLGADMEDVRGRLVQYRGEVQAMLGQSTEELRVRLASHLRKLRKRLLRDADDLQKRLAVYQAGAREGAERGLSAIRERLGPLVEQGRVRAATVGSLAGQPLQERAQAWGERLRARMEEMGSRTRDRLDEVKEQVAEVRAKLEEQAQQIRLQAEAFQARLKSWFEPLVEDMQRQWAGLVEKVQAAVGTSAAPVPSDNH

CC(C)CN1CC(=O)N2CCCC2C(=O)N(Cc2ccccc2)CC(=O)N(Cc2ccccc2)CC(=O)N(C)CC(=O)N(CC(N)=O)CCC1=O (stereo not shown) [CPO_Aβ17-21 P] ([Nleu][ξP][Nphe][Nphe][Sar][N(CH2CH2CO)Gly]-NH2; lactam N-6)
formation of aggregates or fibrils by the peptoid alone [1]: did not produce aggregates or fibrils | cortical astrogliosis (GFAP immunoreactivity) (APP/PS1 Tg mice): no significant effect | cortical microgliosis (CD11b immunoreactivity) (APP/PS1 Tg mice): decreased | cortical microgliosis (Iba1 immunoreactivity) (APP/PS1 Tg mice): reduced | hippocampal astrogliosis (GFAP immunoreactivity) (APP/PS1 Tg mice): decreased | hippocampal microgliosis (CD11b immunoreactivity) (APP/PS1 Tg mice): no significant effect | hippocampal microgliosis (Iba1 immunoreactivity) (APP/PS1 Tg mice): no significant effect | inhibition of apoE4 mediated Aβ42 aggregation ([2]; 100 µM Aβ42, molar ratio 100:1:2 Aβ42:apoE4:peptoid, apoE4 pre-incubated 6 hrs 37 °C, p = 0.0011): significant inhibition | Aβ42 fibril formation with peptoid versus Aβ42 alone ([2]; Aβ42 + peptoid without apoE4, molar ratio 100:2): no significant difference | inhibition of apoE4/Aβ42 binding (apoE4/Aβ42 binding; SPR, 2:1 molar ratio (peptoid:apoE4)): 50% | inhibition of apoE4/Aβ42 binding (apoE4/Aβ42 binding; SPR, 8:1 molar ratio (peptoid:apoE4)): near complete inhibition | inhibition of apoE4/Aβ42 binding (library screen) (apoE4/Aβ42 binding; SPR, immobilised Aβ42, recombinant human apoE4 pre-incubated with peptoid, PBST pH 7.4): inhibited apoE4/Aβ42 binding | IC50 (apoE4/Aβ42 binding; one-site competition nonlinear regression, Fig. 1d legend: lipidated apoE/Aβ binding, read-out: half-maximal inhibition (IC50) of apoE/Aβ binding): 1.02 nM
